# Target: human GPR43 (Homo sapiens (Human), UniProt O15552)
# Assay: Ca-Flux functional assay: determination of agonist/positive allosteric modulator (PAM) activity
# Assay type: cell-based
# Conditions: CHO-K1 Gα16 cells stably expressing human GPR43; compound added with EC20 sodium acetate; intracellular Ca2+ by FLIPR; does not distinguish agonist from PAM
# Protocol: Ca-Flux Functional Assay: Determination of Agonist/Positive Allosteric Modulator (PAM) Activity
# GPR43 agonist/PAM activity was determined by measuring changes in intracellular calcium levels using a Ca^2+ sensitive fluorescent dye. The changes in fluorescent signal were monitored by FLIPR (manufactured by Molecular Devices). GPR43 mediated increases in intracellular Ca^2+ concentration were readily detected upon activation with sodium acetate. Prior to the assay (24 hours), CHO-K1 Gα16 cells stably expressing human GPR43 were-seeded in cell culture medium in black, clear-bottom 384-well plates (Corning Inc) and grown overnight at 37° C., 5% CO2. On the day of the assay, cell culture media was removed and cells were loaded with Calcium 5 Dye (Molecular Devices) diluted in HBSS containing 25 mM HEPES, 2.5 mM Probenecid, 0.1% BSA for 1 hour at 37° C., 5% CO2. 10 point half log concentration response curves of sodium acetate from 10 mM were conducted prior to the testing of compounds to calculate the sodium acetate concentration that produces 20% of the maximal response (EC20). Test compounds (at 10 point half log concentration response curves from 10 μM) were added in the presence of sodium acetate to achieve a final concentration that produces approximately 20% maximal response as calculated from the previous experiment. The changes in fluorescent signal were monitored by FLIPR upon addition of the compound/EC20 sodium acetate mix. The EC50 values were determined from ten point concentration response curves. Curves were generated using the average of two wells for each data point.
# The above assay detects both GPR43 receptor agonists and positive allosteric modulators of the GPR43 receptor, without distinguishing between the two. Activity in either regard is useful in the treatment of conditions associated with GPR43 receptor activity.
# Sequence of human GPR43 (O15552 whole entry): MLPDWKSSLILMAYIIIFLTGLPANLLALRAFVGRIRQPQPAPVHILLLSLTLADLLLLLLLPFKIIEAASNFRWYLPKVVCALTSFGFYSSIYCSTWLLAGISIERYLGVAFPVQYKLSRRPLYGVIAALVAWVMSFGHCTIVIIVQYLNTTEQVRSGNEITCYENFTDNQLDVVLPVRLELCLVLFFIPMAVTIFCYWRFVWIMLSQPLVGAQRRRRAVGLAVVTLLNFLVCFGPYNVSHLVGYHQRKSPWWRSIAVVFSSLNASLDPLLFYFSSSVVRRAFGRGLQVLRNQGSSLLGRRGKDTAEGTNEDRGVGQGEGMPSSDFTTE
row,Structure (SMILES),EC50 [nM]
1,"Nc1[nH]c2c(C3=CCCCC3)ncnc2c1S(=O)(=O)c1cccc(F)c1 [Example 37, 4-(cyclohex-1-en-1-yl)-7-[(3-fluorobenzene)sulfonyl]-5H-pyrrolo[3,2-d]pyrimidin-6-amine]",80
2,"Nc1[nH]c2c(C3=CCCCC3)ncnc2c1S(=O)(=O)c1ccccc1F [Example 38, 4-(cyclohex-1-en-t-yl)-7-[(2-fluorobenzene)sulfonyl]-5H-pyrrolo[3,2-d]pyrimidin-6-amine]",16
3,"Nc1[nH]c2c(C3CCCCC3)ncnc2c1S(=O)(=O)c1cccc(F)c1 [Example 39, 4-cyclohexyl-7-[(3-fluorobenzene)sulfonyl]-5H-pyrrolo[3,2-d]pyrimidin-6-amine]",80
4,"Cc1nc(C2CCCCC2)c2[nH]c(N)c(S(=O)(=O)c3ccccc3)c2n1 [Example 40, 7-(benzenesulfonyl)-4-cyclohexyl-2-methyl-5H-pyrrolo[3,2-d]pyrimidin-6-amine]",55
5,"CCc1nc(C2=CCCCC2)c2[nH]c(N)c(S(=O)(=O)c3ccccc3)c2n1 [Example 41, 7-(benzenesulfonyl)-4-(cyclohex-1-en-1-yl)-2-ethyl-5H-pyrrolo[3,2-d]pyrimidin-6-amine]",37
6,"Cc1ccc(S(=O)(=O)c2c(N)[nH]c3c(C4=CCCCC4)ncnc23)cc1 [Example 42, 4-(cyclohex-1-en-1-yl)-7-[(4-methylbenzene)sulfonyl]-5H-pyrrolo[3,2-d]pyrimidin-6-amine]",32
7,"COc1ccc(S(=O)(=O)c2c(N)[nH]c3c(C4=CCCCC4)ncnc23)cn1 [Example 43, 4-(cyclohex-1-en-1-yl)-7-(6-methoxypyridine-3-sulfonyl)-5H-pyrrolo[3,2-d]pyrimidin-6-amine]",78
8,"COc1ccc(S(=O)(=O)c2c(N)[nH]c3c(C4CCCCC4)ncnc23)cn1 [Example 44, 4-cyclohexyl-7-(6-methoxypyridine-3-sulfonyl)-5H-pyrrolo[3,2-d]pyrimidin-6-amine]",173
9,"Cc1ccc(S(=O)(=O)c2c(N)[nH]c3c(C4CCCCC4)ncnc23)cc1 [Example 45, 4-cyclohexyl-7-[(4-methylbenzene)sulfonyl]-5H-pyrrolo[3,2-d]pyrimidin-6-amine]",84
10,"Nc1[nH]c2c(N3CCC(F)CC3)ncnc2c1S(=O)(=O)c1ccccc1 [Example 46, 7-(benzenesulfonyl)-4-(4-fluoropiperidin-1-yl)-5H-pyrrolo[3,2-d]pyrimidin-6-amine]",153
11,CC1(C)CCN(c2ncnc3c(S(=O)(=O)c4ccccc4)c(N)[nH]c23)C1 [Example 47],358
12,"Nc1[nH]c2c(N3CCCCCC3)ncnc2c1S(=O)(=O)c1ccccc1 [Example 48, 4-(azepan-1-yl)-7-(benzenesulfonyl)-5H-pyrrolo[3,2-d]pyrimidin-6-amine]",209
13,"Nc1[nH]c2c(C3=CCCCC3)ncnc2c1S(=O)(=O)c1ccc(F)c(F)c1 [Example 49, 4-(cyclohex-1-en-1-yl)-7-[(3,4-difluorobenzene)sulfonyl]-5H-pyrrolo[3,2-d]pyrimidin-6-amine]",113
14,"Nc1[nH]c2c(C3=CCCCC3)ncnc2c1S(=O)(=O)C1CCCCC1 [Example 50, 4-(cyclohex-1-en-1-yl)-7-(cyclohexanesulfonyl)-5H-pyrrolo[3,2-d]pyrimidin-6-amine]",80
15,"Nc1[nH]c2c(C3CCCCC3)ncnc2c1S(=O)(=O)C1CCCCC1 [Example 51, 7-(cyclohexanesulfonyl)-4-cyclohexyl-5H-pyrrolo[3,2-d]pyrimidin-6-amine]",162
16,"CC1CN(c2ncnc3c(S(=O)(=O)c4ccccc4)c(N)[nH]c23)CCO1 (stereo not shown) [Example 52, 7-(benzenesulfonyl)-4-(2-methylmorpholin-4-yl)-5H-pyrrolo[3,2-d]pyrimidin-6-amine]",43
17,"CCc1nc(C2CCCCC2)c2[nH]c(N)c(S(=O)(=O)c3ccccc3)c2n1 [Example 53, 7-(benzenesulfonyl)-4-cyclohexyl-2-ethyl-5H-pyrrolo[3,2-d]pyrimidin-6-amine]",58
18,"CC1COCCN1c1ncnc2c(S(=O)(=O)c3ccccc3)c(N)[nH]c12 (stereo not shown) [Example 54, 7-(benzenesulfonyl)-4-(3-methylmorpholin-4-yl)-5H-pyrrolo[3,2-d]pyrimidin-6-amine]",211

# Further lines, results first:
row,EC50 [nM],Structure (SMILES)
1,131,"Nc1[nH]c2c(OCC3CC3)ncnc2c1S(=O)(=O)c1ccccc1 [Example 55, 7-(benzenesulfonyl)-4-(cyclopropylmethoxy)-5H-pyrrolo[3,2-d]pyrimidin-6-amine]"
2,18,"CC1(C)CCCN1c1ncnc2c(S(=O)(=O)c3ccccc3)c(N)[nH]c12 [Example 56, 7-(benzenesulfonyl)-4-(2,2-dimethylpyrrolidin-1-yl)-5H-pyrrolo[3,2-d]pyrimidin-6-amine]"
3,15,"Cc1cccc(-c2ncnc3c(S(=O)(=O)c4ccccc4)c(N)[nH]c23)c1 [Example 57, 7-(benzenesulfonyl)-4-(3-methylphenyl)-5H-pyrrolo[3,2-d]pyrimidin-6-amine]"
4,17,"CC1CCCN(c2ncnc3c(S(=O)(=O)c4ccccc4)c(N)[nH]c23)C1 (stereo not shown) [Example 58, 7-(benzenesulfonyl)-4-(3-methylpiperidin-1-yl)-5H-pyrrolo[3,2-d]pyrimidin-6-amine]"
5,57,"CC1CCN(c2ncnc3c(S(=O)(=O)c4ccccc4)c(N)[nH]c23)CC1 [Example 59, 7-(benzenesulfonyl)-4-(4-methylpiperidin-1-yl)-5H-pyrrolo[3,2-d]pyrimidin-6-amine]"
6,182,"Nc1[nH]c2c(C3CCCCC3)ncnc2c1S(=O)(=O)c1ccc(F)c(F)c1 [Example 60, 4-cyclohexyl-7-(3,4-difluorobenzenesulfonyl)-5H-pyrrolo[3,2-d]pyrimidin-6-amine]"
7,3470,"Nc1[nH]c2c(C3=CCCCC3)ncnc2c1S(=O)(=O)C1CCOCC1 [Example 61, 4-(cyclohex-1-en-1-yl)-7-(oxane-4-sulfonyl)-5H-pyrrolo[3,2-d]pyrimidin-6-amine]"
8,91,"CCN(Cc1ccco1)c1ncnc2c(S(=O)(=O)c3ccccc3)c(N)[nH]c12 [Example 62, 7-(benzenesulfonyl)-4-N-ethyl-4-N-(furan-2-ylmethyl)-5H-pyrrolo[3,2-d]pyrimidine-4,6-diamine]"
9,125,"Nc1[nH]c2c(N(CC3CC3)CC3CCCO3)ncnc2c1S(=O)(=O)c1ccccc1 (stereo not shown) [Example 63, 7-(benzenesulfonyl)-4-N-(cyclopropylmethyl)-4-N-(oxolan-2-ylmethyl)-5H-pyrrolo[3,2-d]pyrimidine-4,6-diamine]"
10,2350,"CCN(Cc1cnn(C)c1)c1ncnc2c(S(=O)(=O)c3ccccc3)c(N)[nH]c12 [Example 64, 7-(benzenesulfonyl)-4-N-ethyl-4-N-[(1-methyl-1H-pyrazol-4-yl)methyl]-5H-pyrrolo[3,2-d]pyrimidine-4,6-diamine]"
11,6820,"CCNc1ncnc2c(S(=O)(=O)c3ccccc3)c(N)[nH]c12 [Example 65, 7-(benzenesulfonyl)-4-N-ethyl-5H-pyrrolo[3,2-d]pyrimidine-4,6-diamine]"
12,2410,"Nc1[nH]c2c(-c3ccncc3)ncnc2c1S(=O)(=O)c1ccccc1 [Example 66, 7-(benzenesulfonyl)-4-(pyridin-4-yl)-5H-pyrrolo[3,2-d]pyrimidin-6-amine]"
13,3170,"Nc1[nH]c2c(-c3cccnc3)ncnc2c1S(=O)(=O)c1ccccc1 [Example 67, 7-(benzenesulfonyl)-4-(pyridin-3-yl)-5H-pyrrolo[3,2-d]pyrimidin-6-amine]"
14,32,"COc1ccc(S(=O)(=O)c2c(N)[nH]c3c(N4CCC(F)(F)CC4)ncnc23)cc1 [Example 68, 4-(4,4-difluoropiperidin-1-yl)-7-(4-methoxybenzenesulfonyl)-5H-pyrrolo[3,2-d]pyrimidin-6-amine]"
15,49,"CC1CCCCN1c1ncnc2c(S(=O)(=O)c3ccccc3)c(N)[nH]c12 (stereo not shown) [Example 69, 7-(benzenesulfonyl)-4-(2-methylpiperidin-1-yl)-5H-pyrrolo[3,2-d]pyrimidin-6-amine]"
16,763,"Nc1[nH]c2c(NCC3CC3)ncnc2c1S(=O)(=O)c1ccccc1 [Example 70, 7-(benzenesulfonyl)-4-N-(cyclopropylmethyl)-5H-pyrrolo[3,2-d]pyrimidine-4,6-diamine]"
17,553,"C=C(C)c1ncnc2c(S(=O)(=O)c3ccc(OC)cc3)c(N)[nH]c12 [Example 71, 7-(4-methoxybenzenesulfonyl)-4-(prop-1-en-2-yl)-5H-pyrrolo[3,2-d]pyrimidin-6-amine]"
18,26,"COc1ccc(S(=O)(=O)c2c(N)[nH]c3c(N4CCC5(CC4)CC5)ncnc23)cc1 [Example 72, 4-{6-azaspiro[2.5]octan-6-yl}-7-(4-methoxybenzenesulfonyl)-5H-pyrrolo[3,2-d]pyrimidin-6-amine]"
19,118,"COc1ccc(S(=O)(=O)c2c(N)[nH]c3c(C4CCCC4)ncnc23)cc1 [Example 73, 4-cyclopentyl-7-(4-methoxybenzenesulfonyl)-5H-pyrrolo[3,2-d]pyrimidin-6-amine]"

# Reference: US10059713B2 (Takeda Pharmaceutical Company Limited, priority 2014, dated 2018)
